Results on four molecules are retold here after ChEMBL document CHEMBL3745638, “Synthesis and biological evaluation of a novel artesunate-podophyllotoxin conjugate as anticancer agent” (Bioorg Med Chem Lett, 2016).

As usually defined, the IC50 is the concentration needed to halve the response being measured.

Experiment [1] has as its system K562/Adr. Kind of experiment: Induction of apoptosis in human K562/ADR cells assessed as induction of cell shrinkage at 2.5 uM after 48 hrs by Hoechst 33342 staining based fluorescence microscopy. It counts as functional.
The target in experiment [2] is T1, Tubulin (Homo sapiens) (UniProt P68371+Q9H4B7+P0DPH7+P68366+Q13509+Q71U36+P04350+Q3ZCM7+P07437+P68363+Q9BQE3+Q6PEY2+Q13885+Q9BVA1+Q9BUF5). Kind of experiment: Inhibition of tubulin polymerization in human K562/ADR cells assessed as reduction in microtubule density at 5 uM after 8 hrs by DAPI staining based immunofluorescence microscopy. The experiment is classed as cell-based.

In experiment [3] the test system is A549. Kind of experiment: Antiproliferative activity against human A549 cells assessed as growth inhibition after 72 hrs by CCK-8 assay. The experiment is classed as functional, cell-based. To be noted: A549, 72 h. On the technique in general: Tetrazolium dyes change colour on reduction, which living cells bring about.
Experiment [4] is described as follows: Antiproliferative activity against human K562/ADR cells assessed as growth inhibition after 72 hrs by CCK-8 assay. It counts as functional, cell-based.
Experiment [5] has as its system HUVEC. Briefly: Antiproliferative activity against HUVEC assessed as growth inhibition after 72 hrs by CCK-8 assay. It counts as cell-based. To be noted: Homo sapiens.
The target of experiment [6] is T1, Tubulin (Homo sapiens). Kind of experiment: Inhibition of tubulin polymerization in human K562/ADR cells assessed as microtubule disruption at 5 uM after 8 hrs by DAPI staining based immunofluorescence microscopy. It counts as cell-based.
The test system of experiment [7] is K562. Briefly: Resistance factor, ratio of IC50 for human K562/ADR cells to IC50 for human K562 cells. It counts as functional.
Experiment [8] is described as follows: Cell cycle arrest in human K562/ADR cells assessed as accumulation in G2/M phase at 2.5 uM after 48 hrs by propidium iodide staining-based flow cytometry (reference value: 8.32 +/- 0.81%). It counts as functional. (In flow cytometry, cells or beads pass a laser one at a time.)
Experiment [9] has as its system K562/Adr. Kind of experiment: Induction of apoptosis in human K562/ADR cells assessed as late apoptotic cells at 2.5 uM after 48 hrs by Annexin V-APC/7-AAD staining based flow cytometry (reference value: 1.69%). The experiment is classed as functional.
The subject of experiment [10] is HeLa. Kind of experiment: Antiproliferative activity against human HeLa cells assessed as growth inhibition after 72 hrs by CCK-8 assay. It counts as functional, cell-based.
For experiment [11], the system named is K562/Adr. Briefly: Induction of apoptosis in human K562/ADR cells assessed as nuclear fragmentation at 2.5 uM after 48 hrs by Hoechst 33342 staining based fluorescence microscopy. The experiment is classed as functional, cell-based.
Experiment [12] concerns HepG2. Briefly: Antiproliferative activity against human HepG2 cells assessed as growth inhibition after 72 hrs by CCK-8 assay. It counts as functional, cell-based. To be noted: HepG2, 72 h.
The subject of experiment [13] is K562/Adr. Briefly: Induction of apoptosis in human K562/ADR cells assessed as early apoptotic cells at 2.5 uM after 48 hrs by Annexin V-APC/7-AAD staining based flow cytometry (reference value: 1.49%). The experiment is classed as functional.
Experiment [14] relates to K562/Adr. Kind of experiment: Induction of apoptosis in human K562/ADR cells assessed as viable cells at 2.5 uM after 48 hrs by Annexin V-APC/7-AAD staining based flow cytometry (reference value: 93.25%). It counts as functional. To be noted: read-out: Activity.
For experiment [15], the system named is K562/Adr. Briefly: Induction of apoptosis in human K562/ADR cells assessed as necrotic cells at 2.5 uM after 48 hrs by Annexin V-APC/7-AAD staining based flow cytometry (reference value: 3.57%). The experiment is classed as functional.
Experiment [16] has as its system K562/Adr. Briefly: Induction of apoptosis in human K562/ADR cells assessed as nuclear condensation at 2.5 uM after 48 hrs by Hoechst 33342 staining based fluorescence microscopy. It counts as functional, cell-based.
Experiment [17] has as its system K562/Adr. Kind of experiment: Inhibition of P-glycoprotein in human K562/ADR cells at 2.5 uM after 48 hrs by Western blot analysis. The experiment is classed as cell-based. A general note: In western blotting, separated proteins are transferred to a membrane and probed.
Experiment [18] deals with K562. Kind of experiment: Antiproliferative activity against human K562 cells assessed as growth inhibition after 72 hrs by CCK-8 assay. To be noted: K562, 72 h. It counts as functional, cell-based.
Experiment [19] relates to K562/Adr. Briefly: Induction of apoptosis in human K562/ADR cells assessed as necrotic cells at 6.5 uM after 48 hrs by Annexin V-APC/7-AAD staining based flow cytometry (reference value: 3.57%). The experiment is classed as functional.
Experiment [20] is described as follows: Cell cycle arrest in human K562/ADR cells assessed as accumulation in G2/M phase at 6.5 uM after 48 hrs by propidium iodide staining-based flow cytometry (reference value: 8.32 +/- 0.81%). It counts as functional.
Experiment [21] deals with K562/Adr. Kind of experiment: Induction of apoptosis in human K562/ADR cells assessed as late apoptotic cells at 6.5 uM after 48 hrs by Annexin V-APC/7-AAD staining based flow cytometry (reference value: 1.69%). It counts as functional.
In experiment [22] the test system is K562/Adr. Kind of experiment: Inhibition of P-glycoprotein in human K562/ADR cells at 6.5 uM after 48 hrs by Western blot analysis. The experiment is classed as cell-based.
Experiment [23] deals with T1, Tubulin (Homo sapiens). Kind of experiment: Inhibition of tubulin polymerization in human K562/ADR cells assessed as microtubule disruption at 13 uM after 16 hrs by DAPI staining based immunofluorescence microscopy. The experiment is classed as cell-based.
Experiment [24] deals with K562/Adr. Briefly: Induction of apoptosis in human K562/ADR cells assessed as viable cells at 6.5 uM after 48 hrs by Annexin V-APC/7-AAD staining based flow cytometry (reference value: 93.25%). The experiment is classed as functional. To be noted: read-out: Activity.
The subject of experiment [25] is K562/Adr. Briefly: Induction of apoptosis in human K562/ADR cells assessed as nuclear condensation at 6.5 uM after 48 hrs by Hoechst 33342 staining based fluorescence microscopy. It counts as functional, cell-based.
For experiment [26], the system named is K562/Adr. Briefly: Induction of apoptosis in human K562/ADR cells assessed as induction of cell shrinkage at 6.5 uM after 48 hrs by Hoechst 33342 staining based fluorescence microscopy. The experiment is classed as functional.
The subject of experiment [27] is K562/Adr. Kind of experiment: Induction of apoptosis in human K562/ADR cells assessed as nuclear fragmentation at 6.5 uM after 48 hrs by Hoechst 33342 staining based fluorescence microscopy. The experiment is classed as functional, cell-based.
For experiment [28], the system named is K562/Adr. Kind of experiment: Induction of apoptosis in human K562/ADR cells assessed as early apoptotic cells at 6.5 uM after 48 hrs by Annexin V-APC/7-AAD staining based flow cytometry (reference value: 1.49%). The experiment is classed as functional.
Experiment [29] concerns the target T1, Tubulin (Homo sapiens). Kind of experiment: Inhibition of tubulin polymerization in human K562/ADR cells assessed as reduction in microtubule density at 13 uM after 16 hrs by DAPI staining based immunofluorescence microscopy. The experiment is classed as cell-based.
Experiment [30] concerns K562/Adr. Kind of experiment: Induction of apoptosis in human K562/ADR cells assessed as late apoptotic cells at 0.1 uM after 48 hrs by Annexin V-APC/7-AAD staining based flow cytometry (reference value: 1.69%). The experiment is classed as functional.
For experiment [31], the system named is K562/Adr. Kind of experiment: Induction of apoptosis in human K562/ADR cells assessed as induction of cell shrinkage at 0.1 uM after 48 hrs by Hoechst 33342 staining based fluorescence microscopy. It counts as functional.
In experiment [32] the test system is K562/Adr. Kind of experiment: Inhibition of P-glycoprotein in human K562/ADR cells at 0.1 uM after 48 hrs by Western blot analysis. The experiment is classed as cell-based.
Experiment [33] deals with T1, Tubulin (Homo sapiens). To be noted: K562/Adr, 0.2 uM.
Description: Inhibition of tubulin polymerization in human K562/ADR cells assessed as reduction in microtubule density at 0.2 uM after 8 hrs by DAPI staining based immunofluorescence microscopy
For experiment [34], the system named is K562/Adr. Briefly: Induction of apoptosis in human K562/ADR cells assessed as nuclear condensation at 0.1 uM after 48 hrs by Hoechst 33342 staining based fluorescence microscopy. It counts as functional, cell-based.
Experiment [35] deals with K562/Adr. Kind of experiment: Induction of apoptosis in human K562/ADR cells assessed as necrotic cells at 0.1 uM after 48 hrs by Annexin V-APC/7-AAD staining based flow cytometry (reference value: 3.57%). It counts as functional.
The subject of experiment [36] is K562/Adr. Briefly: Induction of apoptosis in human K562/ADR cells assessed as nuclear fragmentation at 0.1 uM after 48 hrs by Hoechst 33342 staining based fluorescence microscopy. The experiment is classed as functional, cell-based.
Experiment [37] deals with T1, Tubulin (Homo sapiens). To be noted: K562/Adr, 0.2 uM. The source holds these as a separate data set.
Description: Inhibition of tubulin polymerization in human K562/ADR cells assessed as microtubule disruption at 0.2 uM after 8 hrs by DAPI staining based immunofluorescence microscopy
Experiment [38] has as its system K562/Adr. Briefly: Induction of apoptosis in human K562/ADR cells assessed as viable cells at 0.1 uM after 48 hrs by Annexin V-APC/7-AAD staining based flow cytometry (reference value: 93.25%). The experiment is classed as functional. To be noted: read-out: Activity.
Experiment [39] concerns K562/Adr. Kind of experiment: Induction of apoptosis in human K562/ADR cells assessed as early apoptotic cells at 0.1 uM after 48 hrs by Annexin V-APC/7-AAD staining based flow cytometry (reference value: 1.49%). It counts as functional.
A short description of experiment [40]: Cell cycle arrest in human K562/ADR cells assessed as accumulation in G2/M phase at 0.1 uM after 48 hrs by propidium iodide staining-based flow cytometry (reference value: 8.32 +/- 0.81%). The experiment is classed as functional.

Activity calls are given as the source filed them. The rule behind the calls is not given here.

As for `COc1cc([C@@H]2c3cc4c(cc3[C@H](OC(=O)CCC(=O)O[C@H]3O[C@@H]5O[C@@]6(C)CC[C@H]7[C@H](C)CC[C@@H]([C@H]3C)[C@@]57OO6)[C@H]3COC(=O)[C@H]23)OCO4)cc(OC)c1OC`, the outcome in [1], in experiment [11] and in [16] was Active. In addition, the inhibition entry in experiment [2], in experiment [6] and in experiment [17] was “Active” throughout. In addition, the concentration for half-maximal inhibition (IC50) in experiment [3] came out at 3010 nM; in [4], 2020 nM; in experiment [5] it was 720 nM; in experiment [10], 936 nM; in experiment [12], 672 nM; in experiment [18] it was 453 nM. The “Ratio IC50” value in [7] is given as 4.454. The Activity in experiment [8] was determined as 21.4%; in experiment [9], 2.82%; in [13] it was 2.68%; in experiment [15] it was 6.39%. Also, in [14], the viability at 2.5 µM amounted to 88.1%.

Regarding `C[C@H]1[C@H](OC(=O)CCC(=O)O)O[C@@H]2O[C@@]3(C)CC[C@H]4[C@H](C)CC[C@@H]1[C@@]24OO3` [ARTESUNATE], the Activity in experiment [19] was found to be 7.2%; in experiment [20], 16.9%; in experiment [21], 9.31%; in experiment [28] it was 5.97%. Further, the inhibition entry in experiment [22], in [23] and in experiment [29] was “Active” each time. For the same molecule, the IC50 was 15900 nM in experiment [3]; 6260 nM in experiment [4]; 1090 nM in experiment [5]; 19000 nM in [10]; 22200 nM in experiment [12]; 6000 nM in experiment [18]. Further, the viability at 6.5 µM in experiment [24] came to 77.5%. Moreover, in experiment [7], the “Ratio IC50” value was 1.042. Moreover, the result in [25], in experiment [26] and in experiment [27] was Active.

With `COc1cc([C@@H]2c3cc4c(cc3[C@@H](O[C@@H]3O[C@@H]5CO[C@@H](C)O[C@H]5[C@H](O)[C@H]3O)[C@H]3COC(=O)[C@H]23)OCO4)cc(OC)c1O` [ETOPOSIDE], the IC50 was found to be 2680 nM in experiment [3]; 2020 nM in experiment [4]; 1340 nM in experiment [5]; 1600 nM in experiment [10]; 1750 nM in experiment [12]; 413 nM in experiment [18]. Also, the “Ratio IC50” value in experiment [7] was 4.903.

As for `COc1cc([C@@H]2c3cc4c(cc3[C@H](O)[C@H]3COC(=O)[C@H]23)OCO4)cc(OC)c1OC` [PODOFILOX], the IC50 is 14 nM in [3]; 85 nM in experiment [4]; 14 nM in [5]; 12 nM in experiment [10]; 14 nM in [12]; 6 nM in [18]. Besides, the Activity in experiment [30] stood at 10.65%; in experiment [35], 10.26%; in experiment [39], 24.7%; in experiment [40], 33.2%. In addition, the result in [31], in experiment [34] and in [36] was Active. For the same molecule, the “Ratio IC50” value in experiment [7] was determined as 14.166. Moreover, the inhibition entry in experiment [32], in experiment [33] and in experiment [37] was “Active” throughout. Also, the viability at 0.1 µM in experiment [38] is 54.4%.
